The IC50 is the concentration that gives 50% inhibition.

The target in the experiment is CDK12 wt/CycK (Homo sapiens (Human), UniProt Q9NYV4). Put plainly: Radiometric protein kinase assay (33PanQinase Activity Assay), Assay Condition A (thiol containing conditions). Format: biochemical. Conditions: thiol containing conditions (1.2 mM DTT), ATP at apparent Km. The method, then:
Objective: The IC50 profile of test compounds was determined using three protein kinases.
Test compounds: The compounds were provided as pre-weighed powders in vials. The compounds were dissolved to 1×10^−02M by adding DMSO. 100 μl of each of the resulting stock solutions were transferred into column 2 of four 96 well “master plates”.
Prior to testing, the 1×10^−02M stock solutions in column 2 of the master plates were subjected to a serial, semi-logarithmic dilution using 100% DMSO as a solvent. […] Column 1 and 7 were filled with 100% DMSO as controls. […]
The reaction cocktails were incubated at 30° C. for 60 minutes. […] Incorporation of ^33Pi was determined with a microplate scintillation counter (Microbeta, Wallac). […]
Evaluation of raw data: The median value of the counts in column 1 (n=8) of each assay plate was defined as “low control”. This value reflects unspecific binding of radioactivity to the plate in the absence of a protein kinase but in the presence of the substrate. […]
As part of the data evaluation the low control value from a particular plate was subtracted from the high control value as well as from all 80 “compound values” of the corresponding plate. The residual activity (in %) for each well of a particular plate was calculated by using the following formula: Res. Activity (%)=100×[(cpm of compound−low control)/(high control−low control)] […]

CDK12 wt/CycK, sequence (Q9NYV4 whole entry): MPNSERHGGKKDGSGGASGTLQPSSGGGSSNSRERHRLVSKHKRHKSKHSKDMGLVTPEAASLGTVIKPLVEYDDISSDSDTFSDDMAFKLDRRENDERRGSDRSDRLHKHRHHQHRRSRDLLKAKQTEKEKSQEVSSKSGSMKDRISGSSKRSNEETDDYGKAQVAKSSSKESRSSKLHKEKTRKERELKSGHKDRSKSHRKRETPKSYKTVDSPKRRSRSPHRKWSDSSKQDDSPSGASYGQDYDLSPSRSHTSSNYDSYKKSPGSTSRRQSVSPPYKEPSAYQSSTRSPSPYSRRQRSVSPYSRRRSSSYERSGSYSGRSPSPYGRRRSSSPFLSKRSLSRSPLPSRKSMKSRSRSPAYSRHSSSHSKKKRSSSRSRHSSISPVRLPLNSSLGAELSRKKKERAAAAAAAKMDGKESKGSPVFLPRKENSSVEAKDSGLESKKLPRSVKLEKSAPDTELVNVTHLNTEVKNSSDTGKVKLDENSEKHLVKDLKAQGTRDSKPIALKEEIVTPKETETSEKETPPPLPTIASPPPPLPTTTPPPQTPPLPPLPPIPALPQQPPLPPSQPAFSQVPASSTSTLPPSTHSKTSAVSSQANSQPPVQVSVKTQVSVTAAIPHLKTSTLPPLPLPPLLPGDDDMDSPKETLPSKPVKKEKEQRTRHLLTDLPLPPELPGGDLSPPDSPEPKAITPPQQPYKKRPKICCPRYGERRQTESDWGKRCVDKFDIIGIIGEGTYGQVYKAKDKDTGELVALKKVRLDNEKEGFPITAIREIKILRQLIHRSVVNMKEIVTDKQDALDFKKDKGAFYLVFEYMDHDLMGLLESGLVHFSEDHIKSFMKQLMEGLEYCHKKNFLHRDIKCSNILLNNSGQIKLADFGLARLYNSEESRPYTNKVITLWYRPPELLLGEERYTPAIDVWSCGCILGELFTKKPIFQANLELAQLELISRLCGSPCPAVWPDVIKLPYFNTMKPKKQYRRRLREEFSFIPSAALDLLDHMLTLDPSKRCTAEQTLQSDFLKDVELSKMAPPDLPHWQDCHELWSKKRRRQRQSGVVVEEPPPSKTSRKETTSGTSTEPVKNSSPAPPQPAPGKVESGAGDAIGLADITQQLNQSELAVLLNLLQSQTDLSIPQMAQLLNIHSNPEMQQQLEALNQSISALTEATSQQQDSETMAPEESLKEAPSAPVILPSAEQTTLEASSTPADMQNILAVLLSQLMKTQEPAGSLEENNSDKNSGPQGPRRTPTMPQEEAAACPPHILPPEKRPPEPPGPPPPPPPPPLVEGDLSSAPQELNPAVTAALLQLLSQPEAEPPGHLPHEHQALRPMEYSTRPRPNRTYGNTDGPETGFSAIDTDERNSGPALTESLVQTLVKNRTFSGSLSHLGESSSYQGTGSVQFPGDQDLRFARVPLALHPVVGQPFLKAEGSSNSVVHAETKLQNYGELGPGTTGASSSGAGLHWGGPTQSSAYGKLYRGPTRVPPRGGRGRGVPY
CDK12 wt/CycK, sequence (O75909 whole entry partner): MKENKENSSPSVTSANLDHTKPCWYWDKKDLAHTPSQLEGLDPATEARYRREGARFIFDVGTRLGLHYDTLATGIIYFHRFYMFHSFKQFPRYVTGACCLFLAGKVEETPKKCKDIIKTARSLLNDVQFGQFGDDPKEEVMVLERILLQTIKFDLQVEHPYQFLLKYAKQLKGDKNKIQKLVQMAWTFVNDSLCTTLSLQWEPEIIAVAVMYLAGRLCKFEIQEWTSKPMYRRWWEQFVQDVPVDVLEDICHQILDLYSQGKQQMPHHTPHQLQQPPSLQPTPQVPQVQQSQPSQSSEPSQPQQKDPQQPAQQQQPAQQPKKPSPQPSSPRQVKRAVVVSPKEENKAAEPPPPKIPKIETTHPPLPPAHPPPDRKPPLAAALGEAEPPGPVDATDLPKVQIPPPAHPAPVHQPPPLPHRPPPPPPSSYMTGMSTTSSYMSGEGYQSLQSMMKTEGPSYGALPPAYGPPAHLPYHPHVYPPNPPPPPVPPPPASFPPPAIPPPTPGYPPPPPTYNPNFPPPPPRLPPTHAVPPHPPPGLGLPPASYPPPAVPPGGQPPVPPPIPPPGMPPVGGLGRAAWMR

With `COc1nc(N[C@@H]2CCN(C(=O)c3ccc(NC(=O)/C=C/CN4CC[C@@H](F)C4)cn3)C2)ncc1Cl` [Example 170, (E)-N-(6-((R)-3-((5-chloro-4-methoxypyrimidin-2-yl)amino)pyrrolidine-1-carbonyl)pyridin-3-yl)-4-((R)-3-fluoropyrrolidin-1-yl)but-2-enamide], the IC50 fell in the range of 0.1 to 1 µM.

Regarding “(R)—N-(3-(3-((5-chloropyrimidin-2-yl)amino)pyrrolidine-1-carbonyl)phenyl)-2-cyano-3-(dimethylamino)acrylamide [Example 135]”, the IC50 was in the range of 1 to 10 µM.

The record behind these values is patent publication US11390618B2, “Inhibitors of cyclin-dependent kinases” (Kinnate Biopharma Inc., priority 2018, dated 2022).
